The source of these data is patent US11130679B2, “Biodegradable hollow nanoparticles and methods and apparatus for manufacturing the same” (University of Utah Research Foundation, priority 2018, dated 2021).

The series can be described thus: CCK-8 cytotoxicity in MCF-7 cells. The class given is cell-based. Particulars: human, MCF-7 breast cancer epithelial cells, MCF-7, 6 μg mL^−1 of DOX. As for the experimental part: Cytotoxicity of the intact GSH-sensitive HMSiO2 NPs, TEOS HMSiO2 NPs, DOX-loaded GSH-sensitive HMSiO2 NPs, DOX-loaded TEOS HMSiO2 NPs, and free DOX was evaluated in MCF-7 breast cancer epithelial cells. Cells were cultured at 37° C. in 5% CO2 in DMEM with 10% FBS. Then, the cells were stained using Trypan Blue Stain 0.4% and read by Invitrogen Countess™ automated cell counter (Thermo Fisher Scientific Corporation, Grand Island, N.Y., USA). For the cytotoxicity evaluation, cells were seeded onto 96-well plates with the density of 4,000 cells/well and incubated to grow for 48 h. After 48 h, the cells were washed with PBS. Fresh media containing 10% FBS was then added (120 μL) with varying nanoparticle concentrations ranging from 0 to 1,000 μg mL^−1. Wells with media or Triton™ X-100 (without nanoparticles) were used as negative or positive controls, respectively. The cells were then incubated for another 24 and 48 h, the media was aspirated, and the cells were washed twice with PBS. Cell viability was determined using CCK-8 cytotoxicity assay kit according to an established protocol and absorbance was measured at 450 nm with SpectraMax® M2 microplate reader. Assays were performed at least in triplicate.

Structures can show the parent of a compound that is named as a salt.

Turning to `COc1cccc2c1C(=O)c1c(O)c3c(c(O)c1C2=O)C[C@@](O)(C(=O)CO)C[C@@H]3O[C@H]1C[C@H](N)[C@H](O)[C@H](C)O1` [free DOX, Doxorubicin hydrochloride salt], the cytotoxicity at 24 h, 6 μg mL^−1 (24 h incubation, read-out: Cell viability reduction (cells killed)) is approximately 64%. Also, the cytotoxicity at 48 h, 6 μg mL^−1 (48 h incubation, read-out: Cell viability reduction) was approximately 80%.
